We go through one molecule from patent US20220193039A1, “APPLICATION OF 2,4,5-TRISUBSTITUTED 1,2,4-TRIAZOLONES IN ANTIVIRAL THERAPY” (priority 2020, published 2022).

Holding throughout (assay type): cell-based
The subject of data set [1] is SARS-CoV-2 (nCoV-2019BetaCoV/Wuhan/WIV04/2019 strain). The data set can be described thus: microbe, parasite or virus in culture. Particulars: for inhibition of viral RNA load in the cells: Vero E6, dose-dependent; for EC50: Severe acute respiratory syndrome coronavirus 2, Vero C1008, Vero E6 cells, viral RNA copy number, read-out: EC50 against SARS-CoV-2.
Data set [2] is described as follows: Cytotoxicity test of drug, CCK-8 kit. Particulars: African green monkey; Vero E6 cells; CCK-8; 48 hours. As to the method: (§1) (5) Cytotoxicity test of drug
(§2) The detection of the drug cytotoxicity was performed using CCK-8 kit (Beoytime). Specific steps were as follows:
(§3) 1) 1×104 Vero E6 (ATCC) cells were placed in a 96-well plate and incubated at 37° C. for 8 hours.
(§4) 2) The drug was diluted with DMSO to an appropriate concentration of mother liquor, and then diluted with MEM medium (purchased from Gibco, Catalog No. 10370021) containing 2% FBS (purchased from Gibco, Catalog No. 16000044) to the same concentration as that for the drug treatment. The original medium in the 96-well plate was discarded, 100 μL of drug-containing MEM medium was added to the cells, and three replicate wells were prepared for each concentration. Vehicle control (DMSO and medium were added to the cell wells, without adding drug) and blank control (DMSO and medium were added to the wells, without cells) were set up. After the drug was added, the cells were cultured at 37° C. for 48 hours.
(§5) 3) 20 μL of CCK-8 solution (Beoytime) was added to the well to be tested, mixed gently, without generating bubbles, and continuously incubated at 37° C. for 2 hours. OD450 was read on a microplate reader (purchased from Molecular Devices, Model:SpectraMax M5), and cell viability was calculated:
(§6) Cell activity(%)=(A(drug treatment group)−A(blank control))/(A(vehicle control)−A(blank control))×100%
(§7) wherein A was the reading of the microplate reader.

The subject of another data set is Vero E6 cells. Put plainly: Cytotoxicity test of drug, CCK-8 kit. The note with it: at below 10 μM, FIG. 1. The procedure:
as §1, §2, §3, §4, §5, §6, §7
For orientation: Formazan colour is commonly taken as a measure of viable cells.

Another data set has as its system influenza virus A/PR/8. The data set can be described thus: microbe, parasite or virus in culture. Particulars: unidentified influenza virus, MDCK, 72 h, read-out: EC50 influenza virus A/PR/8 (PR8-MDCK).
Data set [3] relates to influenza virus A/California/07/2009. Put plainly: microbe, parasite or virus in culture. The note with it: unidentified influenza virus, MDCK, 72 h, read-out: EC50 influenza virus A/California/07/2009 (CA07-MDCK).
Data set [4] concerns influenza virus A/Hongkong/08/1968. The data set can be described thus: microbe, parasite or virus in culture. Particulars: unidentified influenza virus, MDCK, 72 h, read-out: EC50 influenza virus A/Hongkong/08/1968 (HK68-MDCK).
The subject of data set [5] is influenza virus A/Zhenxing1109/2010. The data set can be described thus: microbe, parasite or virus in culture. Particulars: unidentified influenza virus, MDCK, 72 h, read-out: EC50 influenza virus A/Zhenxing1109/2010 (ZX1109-MDCK).
The next data set has as its system influenza virus B/Lee/40. Put plainly: microbe, parasite or virus in culture. Particulars: unidentified influenza virus, MDCK, 72 h, read-out: EC50 influenza virus B/Lee/40 (Blee-MDCK).
Data set [6] can be described thus: Cytotoxicity test of the drug on MDCK (CellTiter-Glo). Particulars: dog, MDCK cells. As to the method:
(2) Cytotoxicity test of the drug
1) MDCK cell (purchased from ATCC, Catalog:CCL-34) was inoculated into a 96-well plate at a concentration of 1.5×10^4 cell/well, wherein the medium is DMEM (purchased from Gibco, Catalog No.: 11995065) containing 10% FBS (purchased from Gibco, Catalog No.: 16000044), and cultured for 24 hrs at 37° C. in a CO2 incubator.
2) Before the experiment, the cells were wahsed 3 times with PBS (purchased from Gibco, Catalog No.: 10010049), 150 μL of D/F-12 medium (purchased from Gibco, Catalog No.: 11330032) containing 2 μg/mL TPCK (purchased from Sigma, Catalog No.:T1426) was added. […]
3) Buffer and substrate of CellTiter-Glo® Luminescent Cell Viability Assay Kit (purchased from Promega, Catalog No.:G7573) were mixed in dark as the work solution. […] After stabilizing the signal in dark for 5 min, chemiluminescence was determined by an enzyme-labeled instrument (purchased from Molecular Devices, SpectraMax M5), the plate reading program was the CellTiter-Glo preset program, and the cytotoxicity was calculated: […]
(§8) wherein A was the reads from the enzyme-labeled instrument.
(ATP-based viability assays read luminescence as a measure of living cells.)

Data set [7] has as its system zika virus strain SZ-SMGC-01. The data set can be described thus: Anti-zika virus activity in BHK or Vero cells (CellTiter-Glo). Particulars: preliminary test results. As to the method: (1) Evaluation of anti-zika virus activity of the drug
1) BHK cells (preserved in Academy of Military Medical Sciences) or Vero cells (preserved in Academy of Military Medical Sciences) were inoculated into a 96 wells plate at a concentration of 5×10^3 cells/well for BHK cells and 1×10^4 cells/well for Vero cells, wherein the medium is DMEM (purchased from Gibco, Catalog No.: 11995065) containing 10% FBS (purchased from Gibco, Catalog No.: 16000044), and cultured for 24 hrs at 37° C. in a CO2 incubator.
2) The culture medium in the 96-well plate was discarded, 100 μL of DMEM medium (purchased from Gibco, Catalog No.:11995065) containing 2% FBS (purchased from Gibco, Catalog No.: 16000044) was added. […] Finally, 50 μL of the zika virus strain SZ-SMGC-01 (preserved in Academy of Military Medical Sciences) diluted with DMEM medium containing 2% FBS was added to reach 100 TCID50 for each well. […]
3) Buffer and substrate of CellTiter-Glo® Luminescent Cell Viability Assay Kit (purchased from Promega, Catalog No.:G7573) were mixed in dark as the work solution. […] After stabilizing the signal in dark for 2 min, chemiluminescence was determined by an enzyme-labeled instrument (purchased from Molecular Devices, SpectraMax M5), the plate reading program was the CellTiter-Glo preset program, and the cell viability was calculated: […]
as §8

The test system of the next data set is bunya virus. Particulars: preliminary test results; Huh7 cells.
The subject of another data set is enterovirus strain CB3. Put plainly: Anti-enterovirus activity in Vero cells (CellTiter-Glo). As to the method:
(1) Evaluation of anti-enterovirus activity of the drug
1) Vero cells (purchased from ATCC, Catalog No.:CCL-81) were inoculated into a 96 wells plate at a concentration of 1×10^4 cells/well, wherein the medium is DMEM (purchased from Gibco, Catalog No.: 11995065) containing 2% FBS (purchased from Gibco, Catalog No.: 16000044), and cultured for 24 hrs at 37° C. in a CO2 incubator.
2) Before the experiment, the cells were wahsed 3 times with PBS (purchased from Gibco, Catalog No.: 10010049), 100 μL of DMEM medium (purchased from Gibco, Catalog No.:11995065) containing 2% FBS (purchased from Gibco, Catalog No.: 16000044) was added. […] Finally, 50 μL of the enterovirus strain CB3 (preserved in Academy of Military Medical Sciences) diluted with DMEM medium containing 2% FBS was added to reach 100 TCID50 for each well. […]
3) Buffer and substrate of CellTiter-Glo® Luminescent Cell Viability Assay Kit (purchased from Promega, Catalog No.:G7573) were mixed in dark as the work solution. […] After stablizing the signal in dark for 3 min, chemiluminescence was determined by an enzyme-labeled instrument (purchased from Molecular Devices, SpectraMax M5), the plate reading program was the CellTiter-Glo preset program, and the cell viability was calculated: […]
as §8

The test system of a further data set is EV71. Put plainly: Anti-enterovirus activity, EV71-RD. The note with it: Enterovirus A, RD cells.
Another data set concerns EVD68. Put plainly: Anti-enterovirus activity, EVD68-RD. The note with it: RD cells.
The test system of the next data set is CA16. Put plainly: Anti-enterovirus activity, CA16-RD. The note with it: RD cells.
Another data set relates to CA6. Put plainly: Anti-enterovirus activity, CA6-RD. Particulars: RD cells.
For a further data set, the system named is Vero cells. The data set can be described thus: Cytotoxicity test of the drug, enterovirus example (CellTiter-Glo). Particulars: enterovirus table; cell line not given.

Read-outs that look alike come from different tables or passages of the source. A value given as a limit tells only on which side of the number the result lay.

The term CC50 denotes the concentration at which the toxic effect on the cells reaches its halfway point. Lower therefore signals greater toxicity to the cells. In the case of `CCn1c(CO)nn(-c2cc(O[C@@H](C)C(F)(F)F)c(C(=O)Nc3c(F)cccc3Cl)cc2F)c1=O` [BAY 2402234], the “inhibition of viral RNA load in the cells” value in [1] (24 h after infection by SARS-CoV-2, FIG. 1(a)) was “can inhibit the viral RNA load”; in data set [1] (48 h after infection by SARS-CoV-2, FIG. 1(b)) it was “can inhibit the viral RNA load”. Further, the EC50 in data set [1] (24 hours after the infection) turned out to be 7 nM; in data set [1] (48 hours after the infection), 2.7 nM; with influenza virus A/PR/8, 10 ± 0.3 nM; in [3] it was 30 ± 9 nM; in [4], 7 nM; in data set [5], 40 nM. Moreover, the EC50 is 30 nM in the data set on influenza virus B/Lee/40; below 50 nM in the data set on enterovirus strain CB3 (Enterovirus, 120 h, Vero cells, 5 days); above 100 µM in the data set on EV71; above 100 µM with EVD68; above 100 µM with CA16; above 100 µM in the data set on CA6. The “inhibition of replication of the SARS-CoV-2 virus genome in the infected supernatant” value in data set [1] (at 10 μM, 3.3 μM, 1.1 μM, 0.3 μM, 0.1 μM and 0.03 μM, FIG. 1) is recorded as “could effectively inhibit the replication”. This molecule displayed a CC50 at 48 h in data set [2] of 199 µM. In the data set on Vero E6 cells, the “effect on cell viability (cytotoxicity)” value was “did not change the cell viability”. This molecule displayed a CC50 at 72 h in [6] of 270 nM. In addition, the “inhibitory effect on zika virus” value in data set [7] is “had inhibitory effect”. Also, in the data set on bunya virus, the “inhibitory effect on bunya virus” value is listed as “had inhibitory effect”. Further, the “inhibitory effect on enterovirus” value in the data set with enterovirus strain CB3 (preliminary test results) was “had inhibitory effect”. In the data set on Vero cells, this molecule gave a CC50 above 300 µM.
